{"source": "patent EP2127664A1", "about": "“Change of the load state of MHC molecules by dipeptides” (priority 2008, dated 2009)", "key": {"[1]": {"molecular_target": "T1, soluble HLA-DR1 (DRA*0101, DRB1*0101) (Homo sapiens, UniProt P01903+P01911, A100R/D57E/F55L/F60I/F76Y/I96L/L162R/M171V/P40L/Q125E/R42F/V115G/Y59C)", "T1 construct": "Recombinant soluble HLA-DR1 (DRA*0101, DRB1*0101) (Sloan, V. S (1995) Nature 375, 802-806) was produced in S2 insect cells; made in house; host or cells: S2 insect cells", "assay": "Peptide loading of soluble HLA-DR1 with HA306-318 (ELISA)", "assay_type": "biochemical", "settings": "for complex formation between HA306-318 and soluble HLA-DR1 (catalytic activity): titrated amounts of dipeptide, 100nM HLA-DR1, phosphate-buffered saline pH 7.4, 37 °C, 1 h; for catalytic rate enhancement: mean activity, soluble HLA-DR1 (DRB1*0101)", "source_text": "Antibodies and soluble HLA-DR1. The HLA-DR-specific antibody L243 (ATCC) was purified."}, "[2]": {"test_system": "human T cell line PD2", "assay": "In vitro T cell assay with HA306-318 and peptide-MLE", "assay_type": "cell-based", "source_text": "(§1) Cells. Stable transfection of L929 fibroblasts (ATCC) were done to generate L101 (DRB1*0101 b86 G) or L101 (β86V) respectively (Höpner et al., (2006), supra). Epstein-Barr virus-transformed B cell 721.221(DRB1*0101) was obtained from ATCC. EvHA/X5 (DRB1*0101-restricted, HA306-318-specific) were derived from HLA-DR1tg mice (Rosloniec, E. F. (1997) J. Exp. Med. 185, 1113-1122) and were generated after fusion of the CD4+ EvHA T cell line with the BW cell (Höpner et al., (2006), supra). CD4+ T cell line PD2 , HLA-DR1 restricted and HA 306-318 specific (Falk K, et al., (2000) Eur. J. Immunol. 30, 3012-3020), ABL 908-922-specific T cell hybridoma SaABL/G2 was generated after fusing a CD4+ T cell line generated in HLA-DR1 […] mice with the BW cell.\n(§2) T cell Assays. For pulse wash experiments 5x 10^4 HLA-DR-expressing cells/well were loaded for 4 h with antigenic peptides in the presence and absence of dipeptides as described above. Cells were then washed, and 5x10^4 T cells were added to the culture, which was then incubated for 24 h in Dulbecco's modified Eagle's medium, 5% fetal calf serum in 96-well U-bottom plates. However for permanent assay, HLA-DR expressing cells, T cells and dipeptide stayed together in the reaction for 48 hrs. T cell response was determined in a secondary assay with CTL-L cells (ATCC) as described previously (Falk, K., (2002) J. Biol. Chem. 277, 2709-2715). In experiments with PD-2 cell line, HTR's (as APCs) were pre-irradiated for 520 sec and then used for experiments."}, "[3]": {"test_system": "HLA-DR1 restricted mouse T cell hybridoma EvHA/X5", "assay": "In vitro T cell assay with HA306-318 and peptide-MLE", "assay_type": "cell-based", "source_text": "as §1, §2"}, "[4]": {"test_system": "CD4+ T cell hybridoma specific for the ABL epitope (SaABL/G5)", "assay": "T cell assay, ABL908-922-loaded fibroblasts expressing HLA-DR1 (β86G→V)", "assay_type": "cell-based, mice", "settings": "fibroblasts with mutated HLA-DR1 (β86G→V) loaded in the presence of dipeptides", "source_text": "as §1\nas §2, with “In experiments with PD-2 cell line, HTR's (as APCs) were pre-irradiated for 520 sec and then used for experiments.” left out"}, "[5]": {"molecular_target": "T2, fibroblast cells transfected with mutated HLA-DR1 (β86G→V) (Homo sapiens, UniProt P01903+P01911, A100R/D57E/F55L/F60I/F76Y/I96L/L162R/M171V/P40L/Q125E/R42F/Y59C)", "T2 construct": "transfected with full length versions of wt HLA-DR1 (β86G) and mutated HLA-DR1 (β86G→V); expressed in transfected cells", "assay": "Peptide loading of cell surface MHC molecules with ABL908-922 (FACS)", "assay_type": "cell-based", "settings": "fibroblasts expressing HLA-DR1 (β86G→V)", "source_text": "as §1\nPeptide Loading of Cell Surface MHC Molecules. For loading experiments biotinylated antigenic peptides were incubated with 10 x 10^4 HLA-DR expressing cells/well in presence and absence of dipeptides at 37 °C in Dulbecco's modified Eagle's medium, 5% fetal calf serum in a 96 well V bottom plate for 4 hrs. FACS analysis was done as described previously (Höpner et al., (2006), supra)."}, "[6]": {"molecular_target": "T3, CLIP/HLA-DR1 complex (Homo sapiens, UniProt P01903+P01911, A100R/D57E/F55L/F60I/F76Y/I96L/L162R/M171V/P40L/Q125E/R42F/V115G/Y59C)", "T3 construct": "soluble class II MHC molecules were preloaded with the CLIP peptide; made in house; host or cells: S2 insect cells", "assay": "Ligand exchange / complex dissociation of CLIP/HLA-DR1 (ELISA)", "assay_type": "biochemical", "settings": "10 mM dipeptide; in the presence of free HA306-318", "experimental": "Ligand-exchange of soluble HLA-DR molecules- In vitro ligand exchange experiments were carried out by loading 1,5 µM of HLA-DR1 with biotinylated IC106-120, for 20 hrs (Höpner et al., (2006), supra) in presence of 5% ethanol. HLA-DR1:IC complex was diluted to 1:15 and incubated with 200µg/ml HA peptide in presence and absence of 10mM dipeptide."}, "[7]": {"molecular_target": "T4, HLA-DR1 (β86G→V) (Homo sapiens, UniProt P01903+P01911, A100R/D57E/F55L/F60I/F76Y/I96L/L162R/M171V/P40L/Q125E/R42F/Y59C)", "T4 construct": "Recombinant soluble HLA-DR1 molecules were mutated at position 86; made in house; host or cells: S2 insect cells (printed for the recombinant soluble HLA-DR1; not repeated for the mutants)", "assay": "Loading of soluble mutated HLA-DR1 with ABL908-922 (ELISA)", "assay_type": "biochemical", "settings": "titrated amounts of dipeptide", "protocol": "Peptide loading/ of Soluble HLA-DR Molecules- For in vitro loading experiments 100nM HLA-DR1 was incubated with 40 µg/ml (phosphate-buffered saline, pH 7.4, 37 °C, 1 h)."}, "[8]": {"settings": "in the presence of Ac-FR-NH2 (5 mM per Fig. 5 legend)"}, "[9]": {"settings": "in the absence of the dipeptide catalyst"}}, "note": "Entries after “also recorded” stand apart in the source; their conditions may differ. Peptide text beside a SMILES is read from it."}
{"compound": "C[C@H](N)C(=O)N[C@@H](CCCNC(=N)N)C(=O)O", "note": "[AR] (H-Ala-Arg-OH)", "values": [{"measurement": "complex formation between HA306-318 and soluble HLA-DR1 (catalytic activity)", "setting": "[1]", "value": "No effect"}]}
{"compound": "CC(=O)N[C@@H](C)C(=O)N[C@@H](CCCNC(=N)N)C(N)=O", "note": "[Ac-AR-NH2] (Ac-Ala-Arg-NH2)", "values": [{"measurement": "complex formation between HA306-318 and soluble HLA-DR1 (catalytic activity)", "setting": "[1]", "value": "completely inactive; also recorded: abrogated the effect"}]}
{"compound": "CC(=O)N[C@@H](CCC(=O)O)C(=O)N[C@@H](CCCNC(=N)N)C(N)=O", "note": "[Ac-ER-NH2] (Ac-Glu-Arg-NH2)", "values": [{"measurement": "complex formation between HA306-318 and soluble HLA-DR1 (catalytic activity)", "setting": "[1]", "value": "No enhancement; also recorded: abrogated the effect"}]}
{"compound": "CC(=O)N[C@@H](Cc1ccccc1)C(=O)N[C@@H](CCCNC(=N)N)C(N)=O", "note": "[Ac-FR-NH2] (Ac-Phe-Arg-NH2)", "values": [{"measurement": "on-rate is amplified by a factor of", "setting": "[1]; in the presence of 1 mM", "value": 7.08}, {"measurement": "catalytic rate enhancement", "setting": "[1]", "value": 6.08, "unit": "mM⁻¹"}, {"measurement": "half-maximal response (concentration of HA306-318)", "setting": "[2]; [8]", "value": 0.23, "unit": "ng/mL"}, {"measurement": "half-maximal response (concentration of HA306-318)", "setting": "[3]; [8]", "value": 0.65, "unit": "ng/mL"}]}
{"compound": "CC(=O)N[C@@H](CC(C)C)C(=O)N[C@@H](CCCNC(=N)N)C(N)=O", "note": "[Ac-LR-NH2]", "values": [{"measurement": "ABL908-922-specific T cell stimulation", "setting": "[4]", "value": "most efficient ABL908-922-specific stimulation"}, {"measurement": "effect on the HA306-318-specific T cell response", "setting": "[2]; compared with Ac-FR-NH2", "value": "weaker effects"}, {"measurement": "effect on the HA306-318-specific T cell response", "setting": "[3]; compared with Ac-FR-NH2", "value": "weaker effects"}, {"measurement": "loading of cells with ABL908-922 determined by FACS", "setting": "[5]", "value": "most effective"}, {"measurement": "complex dissociation of CLIP/HLA-DR1", "setting": "[6]", "value": "weaker dissociation"}, {"measurement": "enhancement of ABL908-922 loading", "setting": "[7]", "value": "best enhancement"}]}
{"compound": "CC(=O)N[C@@H](Cc1c[nH]c2ccccc12)C(=O)N[C@@H](CCCNC(=N)N)C(N)=O", "note": "[Ac-WR-NH2] (Ac-Trp-Arg-NH2)", "values": [{"measurement": "catalytic rate enhancement", "setting": "[1]", "value": 3.54, "unit": "mM⁻¹"}]}
{"compound": "CC(=O)N[C@@H](Cc1ccc(O)cc1)C(=O)N[C@@H](CCCNC(=N)N)C(N)=O", "note": "[Ac-YR-NH2]", "values": [{"measurement": "increase in the catalytic activity compared to the unmodified YR peptide", "setting": "[1]; complex formation between HA306-318 and HLA-DR1", "value": "more than 10 fold"}, {"measurement": "catalytic rate enhancement", "setting": "[1]", "value": 3.39, "unit": "mM⁻¹"}, {"measurement": "complex dissociation of CLIP/HLA-DR1", "setting": "[6]", "value": "weaker dissociation"}]}
{"compound": "CC(=O)N[C@@H](Cc1ccc(O)cc1)C(=O)N[C@@H](CCCNC(=N)N)C(=O)O", "note": "[Ac-YR]", "values": [{"measurement": "complex formation between HA306-318 and soluble HLA-DR1 (catalytic activity)", "setting": "[1]", "value": "partial effect"}]}
{"compound": "N=C(N)NCCC[C@H](NC(=O)[C@@H](N)Cc1ccc(O)cc1)C(N)=O", "note": "[YR-NH2]", "values": [{"measurement": "complex formation between HA306-318 and soluble HLA-DR1 (catalytic activity)", "setting": "[1]", "value": "partial effect"}]}
{"compound": "N=C(N)NCCC[C@H](NC(=O)[C@@H](N)Cc1ccc(O)cc1)C(=O)O", "note": "[YR]", "values": [{"measurement": "complex formation between HA306-318 and soluble HLA-DR1 (catalytic activity)", "setting": "[1]", "value": "accelerated the MHC-loading with the HA306-318 peptide in a dose-dependent way"}]}
{"compound": "HA306-318: high-affinity peptide ligand / antigen HA306-318 (PKYVKQNTLKLAT) [reference compound]", "values": [{"measurement": "half-maximal response (concentration of HA306-318)", "setting": "[2]; [9]", "value": 14, "unit": "ng/mL"}, {"measurement": "half-maximal response (concentration of HA306-318)", "setting": "[3]; [9]", "value": 31, "unit": "ng/mL"}]}
